Drawing on PubChem BioAssay AID1259407 (Chemical Carcinogenesis Research Information System (CCRIS), 2018), this text covers mutagenic call for six compounds.

The series concerns CCRIS mutagenicity, Ames/micronucleus/aberration tests. Briefly: CCRIS mutagenicity studies.
Where [1] appears, read: Test System: AMES SALMONELLA TYPHIMURIUM, Strain/Indicator: TA98, Metabolic Activation: NONE, Method: STANDARD PLATE.
[2] abbreviates: Test System: AMES SALMONELLA TYPHIMURIUM, Strain/Indicator: TA98, Metabolic Activation: RAT, LIVER, S-9, AROCLOR 1254, Method: STANDARD PLATE.
Where [3] appears, read: Test System: AMES SALMONELLA TYPHIMURIUM, Strain/Indicator: TA100, Metabolic Activation: NONE, Method: STANDARD PLATE.
The mark [4] stands for this setting: Test System: AMES SALMONELLA TYPHIMURIUM, Strain/Indicator: TA100, Metabolic Activation: RAT, LIVER, S-9, AROCLOR 1254, Method: STANDARD PLATE.
The mark [5] stands for this setting: Test System: Ames Salmonella typhimurium, Strain/Indicator: TA100, Metabolic Activation: None, Method: Preincubation.

Active and inactive are the calls of the source. No rule for the calls is given here.

As to `CC(=O)Nc1ccc(N=Nc2cc(C)ccc2O)cc1`, the mutagenic call was “inactive; negative” (End Point: IN VITRO CHROMOSOMAL ABERRATIONS, Test System: CHO CELLS, Metabolic Activation: NONE); “inactive; negative” (End Point: IN VITRO CHROMOSOMAL ABERRATIONS, Test System: CHO CELLS, Metabolic Activation: RAT, LIVER, S-9, AROCLOR 1254); “active; positive” (Test System: AMES SALMONELLA TYPHIMURIUM, Strain/Indicator: TA97, Metabolic Activation: HAMSTER, LIVER, S-9, AROCLOR 1254 (10%), Method: PREINCUBATION); “active; positive” (Test System: AMES SALMONELLA TYPHIMURIUM, Strain/Indicator: TA97, Metabolic Activation: NONE, Method: PREINCUBATION); “active; positive” (Test System: AMES SALMONELLA TYPHIMURIUM, Strain/Indicator: TA97, Metabolic Activation: RAT, LIVER, S-9, AROCLOR 1254 (10%), Method: PREINCUBATION); “active; positive” (Test System: AMES SALMONELLA TYPHIMURIUM, Strain/Indicator: TA98, Metabolic Activation: HAMSTER, LIVER, S-9, AROCLOR 1254 (5, 10, 20%), Method: PREINCUBATION). Also, the mutagenic call is “active; positive” (Test System: AMES SALMONELLA TYPHIMURIUM, Strain/Indicator: TA98, Metabolic Activation: HAMSTER, LIVER, S-9, AROCLOR 1254 (10%), Method: PREINCUBATION); “active; positive” (Test System: AMES SALMONELLA TYPHIMURIUM, Strain/Indicator: TA98, Metabolic Activation: HAMSTER, LIVER, S-9, AROCLOR 1254, Method: STANDARD PLATE); “active; positive” (Test System: AMES SALMONELLA TYPHIMURIUM, Strain/Indicator: TA98, Metabolic Activation: HAMSTER, LIVER, S-9, Method: PREINCUBATION (PRIVAL METHOD)); “active; positive” (Test System: AMES SALMONELLA TYPHIMURIUM, Strain/Indicator: TA98, Metabolic Activation: NONE, Method: PREINCUBATION); “active; positive” under setting [1]; “active; positive” (Test System: AMES SALMONELLA TYPHIMURIUM, Strain/Indicator: TA98, Metabolic Activation: RAT, LIVER, S-9, AROCLOR 1254 (10%), Method: PREINCUBATION). Besides, the mutagenic call is, setting by setting: (Test System: AMES SALMONELLA TYPHIMURIUM, Strain/Indicator: TA98, Metabolic Activation: RAT, LIVER, S-9, AROCLOR 1254, HAMSTER, LIVER, S-9, AROCLOR 1254, Method: STANDARD PLATE) “active; positive”; (Test System: AMES SALMONELLA TYPHIMURIUM, Strain/Indicator: TA100, Metabolic Activation: HAMSTER, LIVER, S-9, AROCLOR 1254 (10%), Method: PREINCUBATION) “active; positive”; (Test System: AMES SALMONELLA TYPHIMURIUM, Strain/Indicator: TA100, Metabolic Activation: HAMSTER, LIVER, S-9, AROCLOR 1254, Method: STANDARD PLATE) “active; positive”; (Test System: AMES SALMONELLA TYPHIMURIUM, Strain/Indicator: TA100, Metabolic Activation: HAMSTER, LIVER, S-9, Method: PREINCUBATION (PRIVAL METHOD)) “active; positive”; (Test System: AMES SALMONELLA TYPHIMURIUM, Strain/Indicator: TA100, Metabolic Activation: NONE, Method: PREINCUBATION) “active; positive”; (Test System: AMES SALMONELLA TYPHIMURIUM, Strain/Indicator: TA100, Metabolic Activation: RAT, LIVER, S-9, AROCLOR 1254 (10%), Method: PREINCUBATION) “active; positive”. Moreover, the mutagenic call (Test System: AMES SALMONELLA TYPHIMURIUM, Strain/Indicator: TA1535, Metabolic Activation: HAMSTER, LIVER, S-9, AROCLOR 1254 (10%), Method: PREINCUBATION) was “inactive; negative”; the mutagenic call (Test System: AMES SALMONELLA TYPHIMURIUM, Strain/Indicator: TA1535, Metabolic Activation: NONE, Method: PREINCUBATION) is “inactive; negative”; the mutagenic call (Test System: AMES SALMONELLA TYPHIMURIUM, Strain/Indicator: TA1535, Metabolic Activation: RAT, LIVER, S-9, AROCLOR 1254 (10%), Method: PREINCUBATION) is “inactive; negative”; the mutagenic call (Test System: AMES SALMONELLA TYPHIMURIUM, Strain/Indicator: TA1537, Metabolic Activation: NONE, Method: STANDARD PLATE) was “active; positive”; the mutagenic call (Test System: AMES SALMONELLA TYPHIMURIUM, Strain/Indicator: TA1537, Metabolic Activation: RAT, LIVER, S-9, AROCLOR 1254, HAMSTER, LIVER, S-9, AROCLOR 1254, Method: STANDARD PLATE) was “active; positive”; the mutagenic call (Test System: AMES SALMONELLA TYPHIMURIUM, Strain/Indicator: TA1538, Metabolic Activation: NONE, Method: STANDARD PLATE) is “active; positive”. Moreover, the mutagenic call (Test System: AMES SALMONELLA TYPHIMURIUM, Strain/Indicator: TA1538, Metabolic Activation: RAT, LIVER, S-9, AROCLOR 1254, HAMSTER, LIVER, S-9, AROCLOR 1254, Method: STANDARD PLATE) was “active; positive”; the mutagenic call (Test System: Mouse lymphoma, Strain/Indicator: L5178Y (tk+/tk-), Metabolic Activation: None, Method: Suspension/Plate) is “inactive; negative”; the mutagenic call (Test System: Mouse lymphoma, Strain/Indicator: L5178Y (tk+/tk-), Metabolic Activation: Rat, Liver, S-9, Aroclor 1254, Method: Suspension/Plate) is “inactive; inconclusive (previous evaluation negative)”.
Turning to `O=[N+]([O-])c1ccc2ccc3cc4c(c5ccc1c2c35)CCC=C4`, the mutagenic call is “active; positive” (Test System: AMES SALMONELLA TYPHIMURIUM, Strain/Indicator: TA98 (1,8-DNP6), Metabolic Activation: RAT, LIVER, S-9, AROCLOR 1254, Method: STANDARD PLATE); “active; positive” (Test System: AMES SALMONELLA TYPHIMURIUM, Strain/Indicator: TA98(NR), Metabolic Activation: RAT, LIVER, S-9, AROCLOR 1254, Method: STANDARD PLATE); “active; positive” under setting [1]; “active; positive” under setting [2]; “active; positive” under setting [3]; “active; positive” under setting [4].
For the compound `c1ccc2c(c1)cc1c3c2ccc2cccc(c23)C1`, the mutagenic call is, setting by setting: under setting [1], “inactive; negative”; under setting [2], “active; positive”; under setting [4], “active; positive”.
As to `CCCCNC(=O)c1cc(N)ccc1Oc1ccc(C)cc1`, the mutagenic call runs as follows: (Test System: Ames Salmonella typhimurium, Strain/Indicator: TA98, Metabolic Activation: None, Method: Preincubation) “inactive; negative. data for pa31 mentioned in abstract only”; (Test System: Ames Salmonella typhimurium, Strain/Indicator: TA98, Metabolic Activation: Rat, Liver, S-9, Phenobarbital and beta-naphthoflavone, Method: Preincubation) “active; positive”; under setting [5], “inactive; negative. data for pa31 mentioned in abstract only”; (Test System: Ames Salmonella typhimurium, Strain/Indicator: TA100, Metabolic Activation: Rat, Liver, S-9, Phenobarbital and beta-naphthoflavone, Method: Preincubation) “active; positive”; (Test System: Ames Salmonella typhimurium, Strain/Indicator: TA102, Metabolic Activation: None, Method: Preincubation) “inactive; negative. data for pa31 mentioned in abstract only”; (Test System: Ames Salmonella typhimurium, Strain/Indicator: TA1535, Metabolic Activation: None, Method: Preincubation) “inactive; negative. data for pa31 mentioned in abstract only”. Moreover, for the setting “Test System: Ames Salmonella typhimurium, Strain/Indicator: TA1537, Metabolic Activation: None, Method: Preincubation”, the mutagenic call is “inactive; negative. data for pa31 mentioned in abstract only”.
For `CCCCN=[N+]=[N-]`, the mutagenic call was “inactive; negative” under setting [5] and “active; positive” (Test System: Ames Salmonella typhimurium, Strain/Indicator: TA100, Metabolic Activation: Rat, Liver, S-9, Aroclor 1254, Method: Preincubation).
For the compound `CC(Br)C(=O)N(C)Cc1ccccc1` (configuration not stated), the mutagenic call runs as follows: (Test System: AMES SALMONELLA TYPHIMURIUM, Strain/Indicator: TA100, Metabolic Activation: MOUSE, LIVER, S-9, AROCLOR 1254, Method: STANDARD PLATE) “inactive; negative”; under setting [3], “inactive; negative”.
